Results taken from ChEMBL document CHEMBL4651402, “Screening of ~5500 FDA-approved drugs and clinical candidates for anti-SARS-CoV-2 activity” (2021).

System: SARS-CoV-2
Experiment: microbe, parasite or virus in culture
Conditions: Severe acute respiratory syndrome coronavirus 2, Vero C1008, 48 h

`CCCOC(=O)c1ccc(O)cc1` [PROPYLPARABEN] was tested, and the IC50 was > 20 µM and the IC50 (read-out: pIC50 (converted)) was > 20 µM.
In the case of `CC(=O)OCC(=O)C1CCC2C3CC=C4CC(O)CCC4(C)C3CCC12C` (centres undefined), the IC50 is reported as > 20 µM and the IC50 (read-out: pIC50 (converted)) is reported as > 20 µM.
`Cc1ccsc1/C=C/C1=NCCCN1C` [MORANTEL] was tested, and the IC50 was > 20 µM and the IC50 (read-out: pIC50 (converted)) was > 20 µM.
`O=C1CN=C(c2ccccn2)c2cc(Br)ccc2N1` [BROMAZEPAM] was tested, and the IC50 was > 20 µM and the IC50 (read-out: pIC50 (converted)) was > 20 µM.
`CN1CCN(C2=Nc3cc(Cl)ccc3Nc3ccccc32)CC1` [CLOZAPINE] was tested, and the IC50 was > 20 µM and the IC50 (read-out: pIC50 (converted)) was > 20 µM.
In the case of `O=C(c1ccc(Nc2ccnc3cc(C(F)(F)F)ccc23)cc1)N1CCN(S(=O)(=O)c2ccc(F)cc2)CC1` [LOSULAZINE], the IC50 is reported as > 20 µM and the IC50 (read-out: pIC50 (converted)) is reported as > 20 µM.
For `COc1ccc(CCN(C)CCCN2CCc3cc(OC)c(OC)cc3CC2=O)cc1OC` [ZATEBRADINE], the IC50 was > 20 µM and the IC50 (read-out: pIC50 (converted)) was > 20 µM.
For `CC(O)(CS(=O)(=O)c1ccc(F)cc1)C(=O)Nc1ccc(C#N)c(C(F)(F)F)c1` (centres undefined) [BICALUTAMIDE], the IC50 was > 20 µM and the IC50 (read-out: pIC50 (converted)) was > 20 µM.
`CCc1cccc2cc(C(O)CNC(C)(C)C)oc12` (centres undefined) [BUFURALOL] was tested, and the IC50 was > 20 µM and the IC50 (read-out: pIC50 (converted)) was > 20 µM.
In the case of `C[C@@H]1C\C=C/C=C\C=C/C=C\[C@H](O[C@@H]2O[C@H](C)[C@@H](O)[C@H](N)[C@@H]2O)C[C@@H]2O[C@](O)(C[C@@H](O)C[C@H]3O[C@@H]3/C=C\C(=O)O1)C[C@H](O)[C@H]2C(=O)O`, the IC50 is reported as > 20 µM and the IC50 (read-out: pIC50 (converted)) is reported as > 20 µM.
In the case of `O=C(c1ccccc1)c1ccccc1` [BENZOPHENONE], the IC50 is reported as > 20 µM and the IC50 (read-out: pIC50 (converted)) is reported as > 20 µM.
For `CCCCOc1cc(C(=O)OCCN(CC)CC)ccc1N` [BENOXINATE], the IC50 was > 20 µM and the IC50 (read-out: pIC50 (converted)) was > 20 µM.
With `CC12CCC3C(CCC4CC(O)CCC43C)C1CCC2=O` (centres undefined) the IC50 was > 20 µM and the IC50 (read-out: pIC50 (converted)) was > 20 µM.
With `c1cnc(SCc2cccnc2)nc1` [TASULDINE] the IC50 was > 20 µM and the IC50 (read-out: pIC50 (converted)) was > 20 µM.
With `Cn1nnc2ccc(C(c3ccc(Cl)cc3)n3cncn3)cc21` (stereo not drawn) [rac-VOROZOLE] the IC50 was > 20 µM and the IC50 (read-out: pIC50 (converted)) was > 20 µM.
In the case of `CC1CC2C3CC(F)C4=CC(=O)C=CC4(C)C3C(O)CC2(C)C1C(=O)CO` (centres undefined), the IC50 is reported as > 20 µM and the IC50 (read-out: pIC50 (converted)) is reported as > 20 µM.
With `C[C@@H](O)[C@H]1C(=O)N2C(C(=O)O)=C(SCCNC=N)C[C@H]12` [IMIPENEM ANHYDROUS] the IC50 was > 20 µM and the IC50 (read-out: pIC50 (converted)) was > 20 µM.
In the case of `O=C1CN=C(c2ccccc2)c2cc([N+](=O)[O-])ccc2N1` [NITRAZEPAM], the IC50 is reported as > 20 µM and the IC50 (read-out: pIC50 (converted)) is reported as > 20 µM.
With `CN(C)CCSc1nc2ccccc2cc1-c1ccccc1` the IC50 was > 20 µM and the IC50 (read-out: pIC50 (converted)) was > 20 µM.
With `CCC[C@@H]1C[C@@H](C(=O)NC(C2O[C@H](SC)[C@H](OP(=O)(O)O)[C@@H](O)[C@H]2O)[C@H](C)Cl)N(C)C1` (some centres undefined) the IC50 was > 20 µM and the IC50 (read-out: pIC50 (converted)) was > 20 µM.
`O=C(COCCOCCOCC(=O)Nc1c(I)cc(I)c(C(=O)O)c1I)Nc1c(I)cc(I)c(C(=O)O)c1I` [IOTROXIC ACID] was tested, and the IC50 was > 20 µM and the IC50 (read-out: pIC50 (converted)) was > 20 µM.
For `O=C(/C=C/c1ccc(O)cc1)c1ccccc1O`, the IC50 was > 20 µM and the IC50 (read-out: pIC50 (converted)) was > 20 µM.
For `Cn1c(=O)cc(N2CCC[C@@H](N)C2)n(Cc2cc(F)ccc2C#N)c1=O` [TRELAGLIPTIN], the IC50 was > 20 µM and the IC50 (read-out: pIC50 (converted)) was > 20 µM.
With `NC(=O)C(c1ccccc1)(c1ccc(F)cc1)c1ccc(F)cc1` [SENICAPOC] the IC50 was > 20 µM and the IC50 (read-out: pIC50 (converted)) was > 20 µM.
In the case of `NS(=O)(=O)NCCNc1nonc1/C(=N/O)Nc1ccc(F)c(Br)c1` [EPACADOSTAT], the IC50 is reported as > 20 µM and the IC50 (read-out: pIC50 (converted)) is reported as > 20 µM.
For `CCOP(=O)(O)OCC` [DIETHYL HYDROGEN PHOSPHATE], the IC50 was > 20 µM and the IC50 (read-out: pIC50 (converted)) was > 20 µM.
`Cc1cc(SCc2sc(-c3ccc(C(F)(F)F)cc3)nc2C)ccc1OCC(=O)O` [GW501516] was tested, and the IC50 was > 20 µM and the IC50 (read-out: pIC50 (converted)) was > 20 µM.
With `CCN(CC)CCNc1ccc(CO)c2sc3ccccc3c(=O)c12` [HYCANTHONE] the IC50 was > 20 µM and the IC50 (read-out: pIC50 (converted)) was > 20 µM.
In the case of `CNC(=O)CN1CCC(Oc2cc3c(Nc4cccc(Cl)c4F)ncnc3cc2OC)CC1` [SAPITINIB], the IC50 is reported as > 20 µM and the IC50 (read-out: pIC50 (converted)) is reported as > 20 µM.
With `CC[N@@+]1(C)[C@@H]2CC[C@H]1C[C@@H](OC(=O)[C@]1(c3ccccc3)CC[C@H](C(=O)O[C@H]3C[C@H]4CC[C@@H](C3)[N@+]4(C)CC)c3ccccc31)C2` the IC50 was > 20 µM and the IC50 (read-out: pIC50 (converted)) was > 20 µM.
`COc1ccc(C(=O)c2c(C)n(CCN3CCOCC3)c3ccccc23)cc1` [PRAVADOLINE] was tested, and the IC50 was > 20 µM and the IC50 (read-out: pIC50 (converted)) was > 20 µM.
With `CN(C)CCCN1c2ccccc2Sc2ccc(Cl)cc21` [CHLORPROMAZINE] the IC50 was > 20 µM and the IC50 (read-out: pIC50 (converted)) was > 20 µM.
For `C/N=C(/Cc1ccc2ccccc2c1)NC` [NAPACTADINE], the IC50 was > 20 µM and the IC50 (read-out: pIC50 (converted)) was > 20 µM.
`CCC1=C[C@@H]2CN3CCc4c([nH]c5ccccc45)[C@@](C(=O)OC)(C2)[C@H]13` was tested, and the IC50 was > 20 µM and the IC50 (read-out: pIC50 (converted)) was > 20 µM.
For `CCN1CCCC1CNC(=O)c1cc(S(N)(=O)=O)ccc1OC` (centres undefined) [SULPIRIDE], the IC50 was > 20 µM and the IC50 (read-out: pIC50 (converted)) was > 20 µM.
For `CCCCCCCCCCCCCCCC(=O)OCC(O)CO` (centres undefined) [GLYCEROL MONOPALMITATE], the IC50 was > 20 µM and the IC50 (read-out: pIC50 (converted)) was > 20 µM.
With `Cc1cc(Nc2cc(N3CCN(C)CC3)nc(Sc3ccc(NC(=O)C4CC4)cc3)n2)n[nH]1` [TOZASERTIB] the IC50 was > 20 µM and the IC50 (read-out: pIC50 (converted)) was > 20 µM.
